Results on 6 compounds are retold here after patent publication US6602861B1, “Acylated phospholipid drugs” (Research Corporation Technologies, Inc., priority 1992, dated 2003).

For data set [1], the system named is HIV-1 (3B). The experiment in a line: HIV-1 p24 antigen capture assay in infected monocyte-derived macrophages. The format is cell-based. The settings on record: for dose response behaviour in MDM: 1-100 μM; for inhibition of HIV p24 antigen production in MDM: 50 μM.
Data set [2] deals with HIV. The experiment in a line: microbe, parasite or virus in culture. The method, then: (§1) Briefly, the assay was performed as follows. On Day 0, MT4 cells were infected with HIV. On Day 3, mix 10^3-10^4 infected cells (resuspend cells at 10^4-10^5 cells/ml so that the desired number of cells is in a volume of 100 μl) with 10^5 SupT1 cells (suspended at 10^6/ml, so that there are 10^5 cells per 100 μl) in a 96 well plate. Infected cells are titered to find the optimum number of syncytial cells to count. Cells are counted either manually or by flow cytometry. […] The time intervals for other cell lines may vary. To assay drugs that block syncytia formation, 50 μl SupT1, 50 μl infected (MT4) cells (total cell number is the same), and 100 μl of drug are present.

Data set [3] relates to HIV (S5G7, subclone of HTLVIIIB). The experiment in a line: microbe, parasite or virus in culture. The format is cell-based. The following applies: 7 days after infection, read-out: IC50 50% Reduction in Reverse Transcriptase Activity PBMC.
Data set [4] deals with MT4 cells. The experiment in a line: Drug cytotoxicity MTT assay (TC50), uninfected MT4 cells. The format is cell-based. The method, then:
(§2) Three assays for anti-HIV activity were used and the IC50 was calculated from these assays; (i) syncytial cell assays, (ii) reverse transcriptase assays, and (iii) direct […]. In addition, direct drug cytotoxicity was tested ‘as a control’ in each assay which merely means that the drug was dosed to the cells without virus present. This control assured that only the antiviral effect of the compound is measured. However, this drug cytotoxicity was not used to calculate the TC50 because the TC50 required doses of drug that were higher than the effective concentrations. Thus the TC50 is the dose of drug that kills 50% of the cells without virus present and was measured in MTT assays using the same cells type to evaluate antiviral activity. The therapeutic index was calculated from TC50/IC50. The ability of anti-HIV phospholipids to inhibit direct cytopathic effect caused by HIV infection was also measured.
(§3) MT4 cells were plated in 96-well microtiter plates at 8×10^4 cells/well in a volume of 90 μl. [Note: To compare TC50 to IC50, the same cell type used in antiviral assays was tested in the MTT assay; for these experiments, MT4 cells were used to evaluate the syncytial cell assays and PBMC's were used to compare the PBMC/RT assay]. To this was added one minimum cytotoxic dose of HIV in a volume of 10 μl. The test drug was added in 100 μl aliquots at several concentrations. A control plate using uninfected MT4 cells was set up simultaneously to assess cytotoxicity due to the drug alone. The plates were then incubated for five days at 37° C. Then the media was aspirated from the wells and replaced with 100 μl MTT solution (3-(4,5-dimethylthiazol-2-yl)-2,5-di-phenyltetrazolium bromide, 1 mg/ml in PBS) and incubated for 4 hours at 37° C. The plates were then centrifuged to pellet the cells, and the supernatants were removed (centrifugation can be omitted if the supernatants are removed carefully). […] Plates were read on an ELISA reader at Abs 570 nm. […]
Background: Formazan colour is commonly taken as a measure of viable cells.

In data set [5] the test system is PBMC. Kind of data set: Drug cytotoxicity MTT assay (TC50), PBMC. In kind it is cell-based. The following applies: PBMC cells, absence of HIV. The method, then:
as §2
(§4) MT4 cells were plated in 96-well microtiter plates at 8×10^4 cells/well in a volume of 90 μl. [Note: To compare TC50 to IC50, the same cell type used in antiviral assays was tested in the MTT assay; for these experiments, MT4 cells were used to evaluate the syncytial cell assays and PBMC's were used to compare the PBMC/RT assay]. To this was added one minimum cytotoxic dose of HIV in a volume of 10 μl. […] Plates were read on an ELISA reader at Abs 570 nm. […]

For data set [6], the system named is HIV infected MT4 cells. The experiment in a line: Synergism with AZT in syncytial cell assays (FIG. 6). In kind it is cell-based. The following applies: for increase in activity (shift in dose response curve) when AZT was added: plus 0.5 nM AZT. The method, then:
as §1

In data set [7] the test system is HIV. Kind of data set: Anti-HIV activity of D-AC2 and PE analogs compared with 12MO (FIG. 7). The format is cell-based.
Data set [8] is described as follows: in vitro. As to the method: Stability of Anti-HIV Phlospholipids in Fresh Blood at 38° C.
Drug development using phospholipids will require that the parent compound is stable in blood. […] L-PE1 and L-PE2 are identical except that the methylene group in the 13 position of the sn-2 alkyl chain has been replaced with an oxygen atom.

A short description of data set [9]: Liposome formation in aqueous buffers. The format is physicochemical. The source says: The increased activity of L-AC1 in MDM compared to CEM cells may be due to the phagocytosis of L-AC1 liposomes in MDM.
For data set [10], the target named is bee venom phospholipase A2 (PLA2) (Apis mellifera, UniProt P00630).
The test system of data set [11] is HIV-1. The following applies: CEM cells.
Excerpt: The S5G7 strain of HIV was used. S5G7 is a subclone of HTLVIIIB grown in H9 cells, and highly virulent regarding T cell infectivity, but less so for monocytes; this strain was obtained from Abbott Laboratories.
This assay measures the ability of a drug to inhibit the HIV virus from killing cells. CEM cells were used for this assay.
The T-cell HIV inhibition assay method of acutely infected cells is an automated tetrazolium based calorimetric assay adapted from Novak, et al., Aids Res. and Human Retroviruses, 6, 973 (1990). Assays were performed in 96-well tissue culture plates. CEM cells were grown in RPMI-1640 medium (Gibco) supplemented with 10% fetal calf serum and were then treated with polybrene (2 μg/ml). A 80 μl volume of medium containing 1×10^4 cells was dispensed into each well of the tissue culture plate. To each well was added a 100 μl volume of test compound dissolved in tissue culture medium (or medium without test compound as a control) to achieve the desired final concentration and the cells were incubated at 37° C. for 1 hour. A frozen culture of HIV-1 was diluted in culture medium to a concentration of 5×10^6 TCID50 per ml (TCID50=the dose of virus that infects 50% of cells in tissue culture), and a 20 μl volume of the virus sample (containing 1000 TCID50 of virus) was added to wells containing test compound and to wells containing only medium (infected control cells). […] Several wells received culture medium without virus (uninfected control cells). Azidothymidine (AZT) was tested as a positive drug control.
Following the addition of virus, cells were incubated at 37° C. in a humidified, 5% CO2 atmosphere for 7 days. Additional aliquots of test compounds were added on days 2 and 5. On day 7 post-infection, the cells in each well were resuspended and a 100 μl sample of each cell suspension was removed for assay. […] The absorbance of each sample was determined at 590 nm using a Molecular Devices microplate reader. The % reduction of the virus induced cytopathic effect (CPE) by the test compounds was calculated from the equation.
Data set [12] relates to CEM cells.
Data set [13] can be described thus: Drug cytotoxicity MTT assay (TC50), uninfected MT4 cells. In kind it is cell-based. The settings on record: human, uninfected MT4 cells; MT4 cells, absence of HIV. The method, then: as §2, §3
The nature of data set [14]: Drug cytotoxicity MTT assay (TC50), PBMC. In kind it is cell-based. The following applies: human, uninfected; PBMC cells, absence of HIV. The method, then: as §2, §4
For data set [15], the system named is HIV infected MT4 cells. The settings on record: literature report; cited from earlier work.
The conditions of data set [16]: delivered to cells as a free fatty acid; cited from earlier work.
Data set [17] relates to monocyte-derived macrophages (MDM). Kind of data set: Toxicity seen in the macrophage p24 experiment. The settings on record: 100 μM.
The subject of data set [18] is CEM cells. Kind of data set: Direct cytotoxicity of compounds to CEM cells without virus. The settings on record: for direct cytotoxicity to CEM cells: no virus.

“Also recorded” adds a separate entry of the source. Where two headings read alike, the source gives them in different places. Some results are limits rather than exact numbers.

Sequence of bee venom phospholipase A2 (PLA2) (P00630 34-167 limits assumed): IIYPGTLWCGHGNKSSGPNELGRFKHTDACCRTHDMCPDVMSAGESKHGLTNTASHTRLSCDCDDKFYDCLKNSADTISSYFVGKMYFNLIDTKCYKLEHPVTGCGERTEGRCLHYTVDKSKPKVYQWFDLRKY

Regarding “1,2-(di-12-methoxydodecanoyl)-sn-3-phosphatidylcholine [L-AC2]”, the “inhibition of HIV infection in macrophages (p24 antigen)” value (from here on “inhibition of HIV infection”) in data set [1] (1 μM, 15 day acute infection) is on record as “completely suppressed”; in [1] (1 μM, 15 day acute infection, listed as AC2), “completely effective”; in [1] (all doses tested (1-100 μM)) it was “completely inhibited”. In [1], the “dose response behaviour in MDM” value is on record as “No dose response was observed”. Further, the “potency in HIV infected MDM compared with 12MO” value in data set [1] (comparison in words) was “significantly more potent”. Further, the IC50 in [2] (read-out: IC50 50% Reduction in syncytial cell formation MT4 cells, HIV infected MT4 cells, SupT1 target cells) was 1 µM; in data set [2] (read-out: IC50 50% Reduction in syncytial cell formation MT4 cells, HIV infected MT4 cells, SupT1 target cells, listed as AC2), roughly 1 µM; in [3] (PBMC, listed as AC2), roughly 4 µM; in [3] (PBMC), 6 µM; in data set [7], roughly 1 µM. Moreover, the CC50 was determined as 280 µM in data set [4] (MT4 cells, absence of HIV) and 220 µM in [5]. Besides, the “TC50 in the presence of AZT” value in data set [4] (uninfected MT4 cells, AZT 50 nM to 500 nM) is “unchanged”. Further, the “activity alone in syncytial cell assay” value in data set [6] (5 nM) and in data set [6] (10 nM) was “inactive” each time. Also, the “inhibition of syncytia formation” value in data set [6] (5 nM L-AC2 plus 0.5 nM AZT, HIV infected MT4 cells) was roughly 50%. Further, in [6] (compared with 12MO and AZT, FIG. 6), the “synergistic effects with AZT” value is “increased synergistic effects”. For the same compound, the “increase in activity (shift in dose response curve) when AZT was added” value in data set [6] is reported as “approximately 100 fold”. Besides, the “halflife in fresh blood” value in data set [8] was 4.56 h. Besides, in data set [9], the liposome formation result is reported as “formed liposomes”. Further, in data set [10], the “hydrolysis by PLA2” value was “quantitatively hydrolyzed”.

Turning to “1-(12-methoxydodecanoyl)-sn-3-glycerophosphatidylcholine [lysoAC2]”, the IC50 in data set [11] (read-out: IC50, reduction of virus induced cytopathic effect (CPE), 7 days, FIG. 1) is roughly 100 µM. The “toxicity compared with the other analogs” value in [12] is “significantly less toxic”.

With “1-myristoyl-2-(12-methoxydodecan-oyl)-sn-3-phosphalidylcholine [AC1]”, the “inhibition of HIV p24 antigen production in MDM” value in data set [1] is reported as “completely suppressed”. Besides, the “inhibition of HIV infection” value in data set [1] (100 μM) is listed as “almost complete inhibition”. For the same compound, in data set [1] (listed as L-AC1), the “dose response behaviour in MDM” value is listed as “dose responsive activity”. The liposome formation entry in [9] is “formed liposomes”. Also, in data set [11] (50 μM), the “activity in direct cytopathic assay” value is “little activity”. Besides, the “anti-HIV activity with the active fatty acid anchored in the sn-2 position” value in data set [11] (FIG. 1, in words) was “significantly reduced the activity”. Also, the “toxicity compared with the other analogs” value in data set [12] is listed as “significantly less toxic”.

Consider `COCCCCCCCCCCCC(=O)O` [12MO, 12-methoxydodecanoic acid, reference compound], for which the “inhibition of HIV p24 antigen production in MDM” value in data set [1] is reported as “little activity”. In addition, in [1] (100 μM), the “activity in MDM” value is reported as roughly 100%. In addition, the entries for the “inhibition of HIV infection” value in [1] (100 μM) and in data set [1] (doses from 1 to 50 μM (below 100 μM)) were “completely suppressed; also recorded: suppressed HIV replication” and “little activity”, respectively. Also, in [1], the “dose response behaviour in MDM” value was “very steep dose response effect”. Moreover, the IC50 is roughly 4 µM in [2] (Human immunodeficiency virus 1, read-out: IC50 50% Reduction in syncytial cell formation MT4 cells, HIV infected MT4 cells, SupT1 target cells); roughly 12 µM in data set [3] (Human immunodeficiency virus 1, PBMC, 168 h); 19 µM in data set [3] (PBMC). The “Therapeutic Index MT4 cells (TC50/IC50)” value in [2] (MT4 cells, syncytial cell assay) turned out to be 35. The CC50 at 5 days in [13] came to 140 µM; in data set [14], 340 µM. Moreover, the “increase in activity (shift in dose response curve) when AZT was added” value in data set [6] is less than 10 fold. In addition, in [15], the “synergism when administered concurrently with AZT (reported)” value is on record as “act synergistically”. In addition, in data set [16], the “T2 for incorporation into triglycerides and membrane lipids” value was 1 to 2 min. The “toxicity in macrophage experiment” value in data set [17] was “toxic”. The “direct cytotoxicity to CEM cells” value in data set [18] (40 μM) is recorded as “showed toxicity”; in data set [18] (dose up to 400 μM), “toxic”. The “toxicity compared with the other analogs” value in data set [18] (CEM cells, comparison in words) is reported as “most toxic analog tested in this series”.

In data set [7] (Human immunodeficiency virus 1), `CCCCCCCCCCCCCC(=O)OC[C@H](COP(=O)(O)OCCN)OC(=O)CCCCCCCCCCCOC` [L-PE1, 1-Myristoyl-2-[12-methoxydodecanoyl]-sn-glycero-3-phosphoethanolamine] registered an IC50 of 6 µM. For the same compound, in data set [8], the half-life was greater than 50 h.

On to `COCCCCCCCCCCCC(=O)OC[C@H](COP(=O)(O)OCCN)OC(=O)CCCCCCCCCCCOC` [L-PE2, 1,2 di-(12-Methoxydodecanoyl)-sn-glycero-3-phosphoethanolamine], for which the “anti-HIV activity relative to 12MO” value in data set [7] is on record as greater than 100 fold. This compound had an IC50 in data set [7] (Human immunodeficiency virus 1) of 0.02 µM. Further, the half-life in data set [8] is 9.36 h.

A word on the IC50: it is the concentration needed to halve the response being measured. The term CC50 denotes the concentration giving 50% cytotoxicity. As a reminder, the half-life is the time needed for the level to fall by half in the phase considered. Read a low half-life as rapid decline.
